One series concerns the target IMP-1 (Serratia marcescens, UniProt P52699). The experiment in a line: biochemical. The settings on record: CCF2-FA fluorescence assay, 2 hours at 25° C.; read-out: IMP1 IC50. Summed up:
(§1)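 In pH 7 phosphate buffer (100 mM) with 10 μM ZnSO4 and 0.005% Tween-20, CCF2-FA hydrolysis (1.25 μM) by 1 pM NDM-1, 2 pM IMP-1 or 30 pM VIM-1 was run 2 h at 25° C with inhibitor from 20 to 0.00063 μM. Ex 405/em 460 nm signal fitted to a 4-parameter curve for IC50.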

For a further series, the target named is VIM-1 (Pseudomonas aeruginosa (strain ATCC 15692 / DSM 22644 / CIP 104116 / JCM 14847 / LMG 12228 / 1C / PRS 101 / PAO1), UniProt A0A0F7KYQ8). Kind of series: biochemical. As to conditions: CCF2-FA fluorescence assay, 2 hours at 25° C.; read-out: VIM1 IC50. Summed up:
as §1

The target of another series is VIM-2 (Escherichia coli, UniProt Q5U7L7). The experiment in a line: biochemical. As to conditions: CCF2-FA fluorescence assay; read-out: VIM2 IC50.
Series [1] concerns P. aeruginosa MB9799 (efflux-, IMP-1 plasmid). In kind it is cell-based, Pseudomonas aeruginosa. As to conditions: efflux − (MB9799) strain; imipenem at 2 μg/mL; in the presence of a class A, C, D serine β-lactamase inhibitor closely related to relebactam. The method, boiled down: (§2)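 Isogenic P. aeruginosa PAO1 strains (efflux+ and multiple-efflux-pump-disrupted) carrying plasmid IMP-1, with inducible AmpC, tested by broth microdilution. Imipenem and/or ceftazidime fixed, usually at CLSI breakpoint, plus fixed class A/C β-lactamase inhibitor; titrated MBL inhibitor concentration restoring susceptibility recorded and compared between strains as efflux fold difference.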

For series [2], the system named is P. aeruginosa MB9798 (efflux+, IMP-1 plasmid). As to conditions: for MB9798 MITC95 P. aeruginosa uM Efflux WT: efflux + (MB9798) strain, imipenem at 2 μg/mL, in the presence of a class A, C, D serine β-lactamase inhibitor closely related to relebactam; for Efflux ratio: fold difference between efflux+ (MB9798) and efflux− (MB9799) strains. Summed up: as §2
The test system of series [3] is Escherichia coli expressing NDM-1 (CLB30016). In kind it is cell-based. As to conditions: with imipenem 1 μg/ml; 95% inhibition of bacterial growth. The method, boiled down: (§3)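 Clinical MBL-producing strains were grown overnight at 35 °C on blood agar, suspended in saline, diluted 1:100 into 1.1× CAMHB and exposed to test compound with imipenem at 1 μg/ml. After 22–24 h at 35 °C, absorbance gave MITC95: lowest compound concentration inhibiting 95% of growth.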

The test system of series [4] is Klebsiella pneumoniae expressing VIM-1 (IHMA599644). The class given is cell-based. The settings on record: with imipenem 1 μg/ml; 95% inhibition of bacterial growth. Summed up: as §3
Series [5] deals with Serratia marcescens expressing IMP-1 (CL5741). The class given is cell-based. As to conditions: with imipenem 1 μg/ml; 95% inhibition of bacterial growth. The method, boiled down: as §3
The target of a further series is NDM-1 (Klebsiella pneumoniae, UniProt C7C422). The experiment in a line: biochemical. In kind it is biochemical. As to conditions: CCF2-FA fluorescence assay, 2 hours at 25° C. Summed up:
as §1

From US11207312B2, “Metallo-beta-lactamase inhibitors and methods of use thereof” (priority 2017, dated 2021) come the findings set out here.

Sequence of NDM-1 (C7C422 whole entry, looked up, species assumed): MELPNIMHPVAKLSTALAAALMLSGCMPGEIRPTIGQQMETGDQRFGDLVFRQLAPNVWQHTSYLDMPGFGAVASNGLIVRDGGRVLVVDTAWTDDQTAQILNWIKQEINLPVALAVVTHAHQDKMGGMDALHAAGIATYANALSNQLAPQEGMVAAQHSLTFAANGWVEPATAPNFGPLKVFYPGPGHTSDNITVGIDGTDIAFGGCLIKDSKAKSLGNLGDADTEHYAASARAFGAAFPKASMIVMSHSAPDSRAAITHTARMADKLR
Sequence of IMP-1 (P52699 whole entry, looked up, species assumed): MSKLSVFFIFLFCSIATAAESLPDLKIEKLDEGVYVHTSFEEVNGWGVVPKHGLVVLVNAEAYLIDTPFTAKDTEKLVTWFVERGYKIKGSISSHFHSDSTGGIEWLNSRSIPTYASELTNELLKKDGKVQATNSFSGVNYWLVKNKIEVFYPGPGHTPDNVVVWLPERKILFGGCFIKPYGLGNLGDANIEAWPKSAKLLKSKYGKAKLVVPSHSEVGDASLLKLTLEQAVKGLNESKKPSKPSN

For the compound `NOC1CCCN(c2ccc(S(=O)(=O)N[C@@H]3CCNC3)c(S(N)(=O)=O)c2-c2nn[nH]n2)C1=O` (stereo partly shown) [Example 150], the IC50 – broadly, the concentration at which inhibition is half-maximal – on IMP-1 was found to be 17.1 nM; at VIM-1, 0.38 nM; at VIM-2, 1.52 nM; at NDM-1, 0.62 nM. Also, in [1], the “MB9799 MITC95 P. aeruginosa uM Efflux Mutant” value amounted to 3.13 µM. Moreover, the “MB9798 MITC95 P. aeruginosa uM Efflux WT” value in series [2] stood at 12.50 µM. For the same compound, in [2], the Efflux ratio is on record as 4.00. Also, in [3], the “CLB30016 E. coli MITC95 NDM” value came out at 1.56 µM. The “IHMA599644 K. pneumoniae MITC95 VIM” value in series [4] is 12.50 µM. For the same compound, the “CL5741 S. marcescens MITC95 IMP” value in series [5] is 6.25 µM.
Consider `NC(=O)[C@@H]1CN(c2ccc(S(=O)(=O)N[C@@H]3CCNC3)c(S(N)(=O)=O)c2-c2nn[nH]n2)CCN1` [Example 196, (S)-4-(4-(N—((R)-pyrrolidin-3-yl)sulfamoyl)-3-sulfamoyl-2-(2H-tetrazol-5-yl)phenyl)piperazine-2-carboxamide], for which the IC50 came out at 3.26 nM at IMP-1, 0.44 nM at VIM-1, 1.7 nM on VIM-2 and 0.72 nM against NDM-1. For the same compound, in series [1], the “MB9799 MITC95 P. aeruginosa uM Efflux Mutant” value was 0.78 µM. For the same compound, the “MB9798 MITC95 P. aeruginosa uM Efflux WT” value in series [2] stood at 2.34 µM. Moreover, in series [2], the Efflux ratio came to 3.00. Further, the “CLB30016 E. coli MITC95 NDM” value in series [3] was determined as 0.29 µM. In series [4], the “IHMA599644 K. pneumoniae MITC95 VIM” value is 1.17 µM. The “CL5741 S. marcescens MITC95 IMP” value in series [5] stood at 0.20 µM.
Regarding `NC[C@@H](O)CNS(=O)(=O)c1ccc(N2CCC(c3c[nH]cn3)CC2)c(-c2nnn[nH]2)c1S(N)(=O)=O` [Example 169, (R)-4-(4-(1H-imidazol-4-yl)piperidin-1-yl)-N1-(3-amino-2-hydroxypropyl)-3-(1H-tetrazol-5-yl)benzene-1,2-disulfonamide], the IC50 on IMP-1 worked out at 0.26 nM; on VIM-1, 0.1 nM; at VIM-2, 0.4 nM; on NDM-1, 0.23 nM. Further, in series [1], the “MB9799 MITC95 P. aeruginosa uM Efflux Mutant” value was 0.78 µM. In addition, in [2], the “MB9798 MITC95 P. aeruginosa uM Efflux WT” value is 0.78 µM. Also, the Efflux ratio in series [2] amounted to 1.00. Moreover, the “CLB30016 E. coli MITC95 NDM” value in [3] is 0.39 µM. For the same compound, the “IHMA599644 K. pneumoniae MITC95 VIM” value in [4] is 2.34 µM. Moreover, the “CL5741 S. marcescens MITC95 IMP” value in series [5] was determined as 1.17 µM.
As for `NS(=O)(=O)c1c(S(=O)(=O)N[C@@H]2CCNC2)ccc(N2CCC(F)(CO)CC2)c1-c1nnn[nH]1` [Example 91, 4-[4-fluoro-4-(hydroxymethyl)piperidin-1-yl]-N1-[(3R)-pyrrolidin-3-yl]-3-(1H-tetrazol-5-yl)benzene-1,2-disulfonamide], the IC50 stood at 1.26 nM at IMP-1, 0.47 nM on VIM-1, 1.65 nM at VIM-2 and 0.42 nM against NDM-1. Further, the “MB9799 MITC95 P. aeruginosa uM Efflux Mutant” value in series [1] stood at 1.56 µM. Moreover, the “MB9798 MITC95 P. aeruginosa uM Efflux WT” value in series [2] was found to be 3.13 µM. The Efflux ratio in series [2] is 2.00. The “CLB30016 E. coli MITC95 NDM” value in series [3] was determined as 3.13 µM. In addition, in series [4], the “IHMA599644 K. pneumoniae MITC95 VIM” value came out at 6.25 µM. For the same compound, in [5], the “CL5741 S. marcescens MITC95 IMP” value amounted to 3.13 µM.
For the compound `NS(=O)(=O)c1c(S(=O)(=O)N[C@@H]2CCNC2)ccc(NCCN2CCNCC2)c1-c1nnn[nH]1` [Example 75, 4-[(2-piperazin-1-ylethyl)amino]-N1-[(3R)-pyrrolidin-3-yl]-3-(1H-tetrazol-5-yl)benzene-1,2-disulfonamide], the IC50 was found to be 178 nM at IMP-1, 6.75 nM at VIM-1, 200 nM at VIM-2 and 162 nM against NDM-1. In addition, the “MB9799 MITC95 P. aeruginosa uM Efflux Mutant” value in [1] was 3.13 µM. Besides, the “MB9798 MITC95 P. aeruginosa uM Efflux WT” value in series [2] was 25.00 µM. Further, the Efflux ratio in [2] came to 8.00. The “CLB30016 E. coli MITC95 NDM” value in series [3] came to 6.25 µM. For the same compound, in series [4], the “IHMA599644 K. pneumoniae MITC95 VIM” value is 3.13 µM. Also, in series [5], the “CL5741 S. marcescens MITC95 IMP” value is 12.50 µM.
As for `NS(=O)(=O)c1c(S(=O)(=O)N[C@@H]2CCNC2)ccc(NC2CCOCC2)c1-c1nnn[nH]1` [Example 66, N1-[(3R)-pyrrolidin-3-yl]-4-(tetrahydro-2H-pyran-4-ylamino)-3-(1H-tetrazol-5-yl)benzene-1,2-disulfonamide], the IC50 stood at 4.48 nM on IMP-1, 1.76 nM at VIM-1, 3.7 nM at VIM-2 and 0.62 nM against NDM-1. Moreover, in series [1], the “MB9799 MITC95 P. aeruginosa uM Efflux Mutant” value came to 1.56 µM. Further, the “MB9798 MITC95 P. aeruginosa uM Efflux WT” value in [2] was found to be 25.00 µM. The Efflux ratio in series [2] turned out to be 15.99. Further, in series [3], the “CLB30016 E. coli MITC95 NDM” value is 6.25 µM. In addition, the “IHMA599644 K. pneumoniae MITC95 VIM” value in series [4] came out at 6.25 µM. The “CL5741 S. marcescens MITC95 IMP” value in [5] was 3.13 µM.
For `NC[C@@H](O)CNS(=O)(=O)c1ccc(N2CCN(CCO)C(=O)C2)c(-c2nn[nH]n2)c1S(N)(=O)=O` [Example 146, (R)-N1-(3-amino-2-hydroxypropyl)-4-(4-(2-hydroxyethyl)-3-oxopiperazin-1-yl)-3-(2H-tetrazol-5-yl)benzene-1,2-disulfonamide], the IC50 was 2.25 nM on IMP-1, 0.31 nM on VIM-1, 1.77 nM on VIM-2 and 2.32 nM against NDM-1. The “MB9799 MITC95 P. aeruginosa uM Efflux Mutant” value in [1] was found to be 1.56 µM. Also, the “MB9798 MITC95 P. aeruginosa uM Efflux WT” value in [2] was 1.56 µM. In addition, the Efflux ratio in [2] turned out to be 1.00. The “CLB30016 E. coli MITC95 NDM” value in series [3] is 1.56 µM. Moreover, in [4], the “IHMA599644 K. pneumoniae MITC95 VIM” value is 6.25 µM. Further, in [5], the “CL5741 S. marcescens MITC95 IMP” value was found to be 3.13 µM.
With `NS(=O)(=O)c1c(S(=O)(=O)N[C@@H]2CCNC2)ccc(N2CCC(S(N)(=O)=O)CC2)c1-c1nnn[nH]1` [Example 80, N1-[(3R)-pyrrolidin-3-yl]-4-(4-sulfamoylpiperidin-1-yl)-3-(1H-tetrazol-5-yl)benzene-1,2-disulfonamide], the IC50 was found to be 0.43 nM at IMP-1, 0.13 nM at VIM-1, 0.66 nM on VIM-2 and 0.3 nM at NDM-1. In addition, the “MB9799 MITC95 P. aeruginosa uM Efflux Mutant” value in series [1] was 1.56 µM. Moreover, the “MB9798 MITC95 P. aeruginosa uM Efflux WT” value in [2] turned out to be 1.56 µM. The Efflux ratio in series [2] worked out at 1.00. Further, the “CLB30016 E. coli MITC95 NDM” value in [3] came out at 1.56 µM. In series [4], the “IHMA599644 K. pneumoniae MITC95 VIM” value amounted to 3.13 µM. Moreover, the “CL5741 S. marcescens MITC95 IMP” value in [5] is 0.78 µM.
With `NCCC1CCCN(c2ccc(S(=O)(=O)NC[C@H](O)CN)c(S(N)(=O)=O)c2-c2nn[nH]n2)CC1` (stereo partly drawn) [Example 140, N1-((R)-3-amino-2-hydroxypropyl)-4-(4-(2-aminoethyl)azepan-1-yl)-3-(2H-tetrazol-5-yl)benzene-1,2-disulfonamide bis(2,2,2-trifluoroacetate)], the IC50 at IMP-1 is 6.34 nM; at VIM-1, 0.1 nM; on VIM-2 it was 1.87 nM; against NDM-1, 3.75 nM. In addition, in [1], the “MB9799 MITC95 P. aeruginosa uM Efflux Mutant” value is 0.78 µM. Moreover, the “MB9798 MITC95 P. aeruginosa uM Efflux WT” value in series [2] was found to be 1.56 µM. In series [2], the Efflux ratio stood at 2.00. Besides, the “CLB30016 E. coli MITC95 NDM” value in [3] was determined as 1.56 µM. In addition, in series [4], the “IHMA599644 K. pneumoniae MITC95 VIM” value was determined as 0.78 µM. Further, the “CL5741 S. marcescens MITC95 IMP” value in series [5] was found to be 0.78 µM.
Turning to `NC(=O)C1CCN(c2ccc(S(=O)(=O)N[C@@H]3CCNC3)c(S(N)(=O)=O)c2-c2nnn[nH]2)CC1` [Example 94, 1-{4-[(3R)-pyrrolidin-3-ylsulfamoyl]-3-sulfamoyl-2-(1H-tetrazol-5-yl)phenyl}piperidine-4-carboxamide], the IC50 on IMP-1 is 0.5 nM; on VIM-1, 0.27 nM; on VIM-2, 1.18 nM; against NDM-1 it was 0.18 nM. For the same compound, in series [1], the “MB9799 MITC95 P. aeruginosa uM Efflux Mutant” value worked out at 3.13 µM. Besides, the “MB9798 MITC95 P. aeruginosa uM Efflux WT” value in series [2] worked out at 3.13 µM. Also, in [2], the Efflux ratio is given as 1.00. Besides, the “CLB30016 E. coli MITC95 NDM” value in series [3] amounted to 3.13 µM. In addition, in [4], the “IHMA599644 K. pneumoniae MITC95 VIM” value turned out to be 6.25 µM. Moreover, the “CL5741 S. marcescens MITC95 IMP” value in series [5] came to 6.25 µM.
